“Also recorded” adds a separate entry of the source. Like-named read-outs stand apart in the source and are kept apart here.
Legend:
[1] = target: T1, human GABAρ1 (Homo sapiens, UniProt P24046); assay: Modulation of activated GABAρ1: analogue applied during the current plateau upon activation with 3 µM GABA, oocytes; type: cell-based; conditions: for Efficacy % to inhibit GABA responses: activated GABA channels (Fig. 5D empty bars), applied during 3 µM GABA perfusion
T1 construct: expressed in transfected cells; host or cells: Xenopus laevis oocytes injected with in vitro transcribed mRNA

[2] = target: LGC-53 (Caenorhabditis elegans, UniProt H2KYN9); assay: cell-based; type: cell-based; conditions: for gating or modulation of LGC-53: high concentrations (up to 1 mM); for Emax: read-out: Maximal effect versus maximal response to DA, % current;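 as to all read-outs here: LGC-53 expressed in frog oocytes, two-electrode voltage clamp at −60 mV, analogues bath-applied, full or partial agonism judged by maximal effect against DA applied before and after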
[3] = target: T1, human GABAρ1; assay: Inhibition of GABA currents by co-application of 3 µM GABA and analogue, two-microelectrode voltage clamp in X. laevis oocytes; type: cell-based; conditions: for extent of inhibition of GABA currents at high concentrations: maximum inhibition compared with full inhibition (100%); for Emax: read-out: Maximal effect on GABA currents, % Inh; for effect on the responses generated by 3 μM GABA: concentrations up to 20 mM, data not shown;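 as to all read-outs here: oocytes expressing human GABAρ1 from injected mRNA, recorded 1–5 days later, clamped at −60 mV, room temperature, compounds bath-applied at pH 7.4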
[4] = target: T1, human GABAρ1; assay: Current-voltage ramp (−120 to +70 mV) of GABA currents in presence of the IC50 of each compound, oocytes; type: cell-based; conditions: 3 µM GABA, compound at its IC50; GABA alone as reference
Procedure: All these compounds are ionized at pH 7.4.
Supplementary Figure S2. I/V Curves A) Current−voltage relations for GABA currents modulated in presence of DA
analogues. B). Percentage of inhibition of DA analogues (for each compound the IC50s were tested) in the currents
Reverse potentials were: -35.25 ± 1.04 mV, -35.69 ±
reverse potential was -35.07 ± 0.90 mV.
(1 picture or pasted object on this page, not shown here)

[5] = target: T1, human GABAρ1; parameters: method as in Ochoa de la Paz et al., 2012; conditions: Table 1, ref Ochoa de la Paz et al., 2012, cited from earlier work; for IC50: read-out: GABA ρ1 (Human) IC50, oocytes
[6] = target: T1, human GABAρ1; assay: Competition assays: GABA concentration-response curves in presence of 3-MT, oocytes; type: cell-based
[7] = receptor activated with GABA 3 µM
[8] = Fig. 7C, maximal concentration tested, DA 300 µM

Chain of LGC-53 (H2KYN9 entry or part of it): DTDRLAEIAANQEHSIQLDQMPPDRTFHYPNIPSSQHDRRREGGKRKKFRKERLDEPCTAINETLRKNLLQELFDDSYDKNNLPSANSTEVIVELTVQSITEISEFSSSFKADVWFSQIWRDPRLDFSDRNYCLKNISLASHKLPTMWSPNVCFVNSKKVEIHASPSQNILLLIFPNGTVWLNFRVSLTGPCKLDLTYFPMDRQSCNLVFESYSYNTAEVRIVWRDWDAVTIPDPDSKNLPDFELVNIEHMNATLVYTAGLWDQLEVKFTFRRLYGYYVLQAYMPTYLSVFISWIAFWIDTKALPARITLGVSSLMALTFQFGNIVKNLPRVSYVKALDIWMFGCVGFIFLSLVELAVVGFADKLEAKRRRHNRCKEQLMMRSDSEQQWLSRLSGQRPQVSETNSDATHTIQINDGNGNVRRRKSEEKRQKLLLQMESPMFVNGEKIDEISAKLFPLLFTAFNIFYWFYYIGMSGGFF
T1 sequence (P24046 22-479): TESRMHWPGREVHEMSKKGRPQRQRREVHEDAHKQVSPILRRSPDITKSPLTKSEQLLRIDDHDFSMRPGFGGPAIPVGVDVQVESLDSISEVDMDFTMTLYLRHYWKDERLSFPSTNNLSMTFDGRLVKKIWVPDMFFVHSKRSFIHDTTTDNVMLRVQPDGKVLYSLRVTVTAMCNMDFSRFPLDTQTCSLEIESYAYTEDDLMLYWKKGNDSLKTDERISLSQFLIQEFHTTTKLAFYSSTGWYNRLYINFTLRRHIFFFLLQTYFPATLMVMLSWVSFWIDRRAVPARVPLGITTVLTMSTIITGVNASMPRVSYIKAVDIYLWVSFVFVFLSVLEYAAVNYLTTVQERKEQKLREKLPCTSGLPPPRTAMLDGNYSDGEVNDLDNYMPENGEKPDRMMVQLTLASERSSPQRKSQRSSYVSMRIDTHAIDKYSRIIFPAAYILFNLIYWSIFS

COc1cc(CCN)ccc1O [3-MT, 3-Methoxytyramine]
Efficacy % to inhibit GABA responses [1]: 51.65 ± 6.93% | decrease of potency on activated receptor versus co-application [1, 7]: 2 fold | activity on LGC-53 [2]: inactive | LGC-53 EC50 (mM) ([2]; Table 1): N.E | gating or modulation of LGC-53 [2]: Neither GABA nor 3-MT gated the channel or showed an evident modulatory effect | GABA ρ1 (Human) Antagonist: Full or partial ([3]; Table 1): full | extent of inhibition of GABA currents at high concentrations [3]: Full inhibition | IC50 ([3]; read-out: GABA ρ1 (Human) IC50, Table 1, oocytes): 285 ± 3 µM | Emax [3]: 100 ± 2.17% | reversal potential of GABA currents [4]: -35.25 ± 1.04 mV

O=C(O)Cc1ccc(O)c(O)c1 [DOPAC, 3,4-Dihydroxyphenylacetic acid]
change in potency/efficacy between activated receptor and co-application protocols [1, 7]: did not show differences in the efficacy or potency | LGC-53 EC50 (mM) ([2]; Table 1): N.E | GABA ρ1 (Human) Antagonist: Full or partial ([3]; Table 1): partial | IC50 ([3]; Table 1, oocytes): 2250 ± 258 µM | extent of inhibition of GABA currents at high concentrations [3]: significantly different from the full inhibition | Emax [3]: 93.6 ± 2.41%

N[C@@H](Cc1ccc(O)c(O)c1)C(=O)O [L-DOPA, L-3,4-dihydroxyphenylalanine]
LGC-53 EC50 (mM) ([2]; Table 1): N.E | GABA ρ1 (Human) IC50 (mM) ([3]; Table 1, oocytes): N.E

NCCc1ccccc1 [β-PEA, 2-Phenylethylamine]
Efficacy % to inhibit GABA responses [1]: 63.62 ± 11.44% | decrease of potency on activated receptor versus co-application [1, 7]: 2 fold | EC50 [2]: 1.33 ± 0.433 mM | agonist type on LGC-53 [2]: partial agonists | Emax [2, 8]: 48.5 ± 10.4% | LGC-53 Agonist: Full or partial ([2]; Table 1): partial | IC50 [3]: 1790 ± 104 µM | GABA ρ1 (Human) Antagonist: Full or partial ([3]; Table 1): full | Emax [3]: 97.3 ± 2.73%

COc1cc(CC(=O)O)ccc1O [HVA, Homovanillic acid]
change in potency/efficacy between activated receptor and co-application protocols [1, 7]: did not show differences in the efficacy or potency | LGC-53 EC50 (mM) ([2]; Table 1): N.E | GABA ρ1 (Human) Antagonist: Full or partial ([3]; Table 1): partial | IC50 ([3]; Table 1, oocytes): 1970 ± 211 µM | extent of inhibition of GABA currents at high concentrations [3]: significantly different from the full inhibition | Emax [3]: 86.5 ± 1.89%

NCCCCO [4-AM-1-OH, 4-Amino-1-butanol]
Efficacy % to inhibit GABA responses [1]: 65.50 ± 4.77% | increase of potency on activated receptor versus co-application ([1]; receptor activated with GABA 3 µM, not statistically significant): about 25% | LGC-53 EC50 (mM) ([2]; Table 1): N.E | GABA ρ1 (Human) Antagonist: Full or partial ([3]; Table 1): full | IC50 ([3]; Table 1, oocytes): 3910 ± 544 µM | Emax [3]: 98.3 ± 7.3%

CNC[C@H](O)c1ccc(O)c(O)c1 [AD, Adrenaline]
LGC-53 Agonist: Full or partial [2]: partial | agonist type on LGC-53 [2]: partial agonists | EC50 ([2]; LGC-53 EC50 (mM)): 3.8 ± 0.803 mM | Emax [2]: 59.2 ± 9.4% | GABA ρ1 (Human) IC50 (mM) ([3]; Table 1, oocytes): N.E | effect on the responses generated by 3 μM GABA [3]: failed to elicit any effect

NCCc1ccc(O)c(O)c1 [DA, Dopamine]
GABA ρ1 (Human) Antagonist: Full or partial [5]: full | IC50 [5]: 210 ± 1.12 µM | Efficacy % to inhibit GABA responses [1]: 61.94 ± 6.66% | decrease of potency on activated receptor versus co-application [1, 7]: around 10 fold | LGC-53 Agonist: Full or partial [2]: full | EC50 ([2]; EC50 on LGC-53): 0.00415 ± 0.0011 mM | EC50 ([2]; LGC-53 EC50 (mM)): 0.0042 ± 0.001 mM | currents generated by the compound alone in oocytes injected with human ρ1 ([3]; DA up to 1 mM, no GABA): did not generate evident currents | extent of inhibition of GABA currents at high concentrations [3]: Full inhibition | Emax [3]: 94.3 ± 5.84%

NCCc1ccc(O)cc1 [Tyr, Tyramine]
GABA ρ1 (Human) Antagonist: Full or partial [5]: full | IC50 [5]: 550 ± 12 µM | agonist type on LGC-53 [2]: partial agonists | Emax [2, 8]: 64.7 ± 9.6% | LGC-53 Agonist: Full or partial ([2]; Table 1): partial | EC50 ([2]; Table 1, read-out: LGC-53 EC50): 2.18 ± 0.482 mM

NC[C@H](O)c1ccc(O)c(O)c1 [NAD, Noradrenaline]
EC50 [2]: 0.137 ± 0.072 mM | LGC-53 Agonist: Full or partial ([2]; Table 1): partial | Emax [2]: 61 ± 13% | GABA ρ1 (Human) IC50 (mM) ([3]; Table 1, oocytes): N.E | effect on the responses generated by 3 μM GABA [3]: failed to elicit any effect

NCCCC(=O)O [GABA, γ-Aminobutyric acid]
Hill number of GABA concentration-response curve ([6]; 3-MT at its IC25): 1.38 ± 0.24 | Hill number of GABA concentration-response curve ([6]; 3-MT at its IC50): 1.40 ± 0.27 | Hill number of GABA concentration-response curve ([6]; 3-MT at its IC75): 1.90 ± 0.36 | Hill number of GABA concentration-response curve ([6]; GABA alone): 1.34 ± 0.37 | activity on LGC-53 [2]: not modulated; also recorded: neither activated LGC-53 nor modulated the DA responses | gating or modulation of LGC-53 [2]: Neither GABA nor 3-MT gated the channel or showed an evident modulatory effect | reversal potential of GABA currents [4]: -35.07 ± 0.90 mV
